This is an account of results in paper PMC8474116, “Discovery of Novel Acetamide-Based Heme Oxygenase-1 Inhibitors with Potent In Vitro Antiproliferative Activity” (Journal of Medicinal Chemistry, 2021).

By IC50 is commonly meant the concentration that inhibits the measured activity by half. The low end stands for greater potency, the high end for weaker potency. By melting point is commonly meant the temperature, or range, at which the solid turns liquid.

One series deals with T1, HO-1 (Rattus norvegicus, UniProt P06762).
T1 construct: selected to use the most native (i.e., closest to in vivo) forms of HO-1 and HO-2; from tissue; host or cells: rat spleen (male Sprague-Dawley), microsomal fraction
T1 sequence (P06762 1-289): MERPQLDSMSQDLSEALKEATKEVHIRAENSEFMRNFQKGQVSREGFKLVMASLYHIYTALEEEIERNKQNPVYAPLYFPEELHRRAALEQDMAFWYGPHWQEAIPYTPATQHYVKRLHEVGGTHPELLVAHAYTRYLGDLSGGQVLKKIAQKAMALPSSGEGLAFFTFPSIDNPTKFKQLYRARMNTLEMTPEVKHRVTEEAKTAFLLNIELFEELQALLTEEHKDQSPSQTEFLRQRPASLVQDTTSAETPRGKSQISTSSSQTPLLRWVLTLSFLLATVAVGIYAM
Description: HO-1 enzymatic activity, rat spleen microsomal fraction (bilirubin formation). The format is biochemical. Conditions: for IC50 / HO-1 inhibitory activity (in words): rat spleen microsomal fraction; for IC50: mean of triplicate ± SD. How it is done: HO-1 and HO-2 were obtained, respectively, from the rat spleen and brain as the microsomal fraction prepared by differential centrifugation; the dominance of HO-1 protein in the rat spleen and HO-2 in the rat brain has been well documented.[24] These particular microsomal preparations were selected to use the most native (i.e., closest to in vivo) forms of HO-1 and HO-2. Spleen and brain (Sprague-Dawley rats) microsomal fractions were prepared according to the procedure outlined by Ryter et al.[2] The experiments reported in the present paper complied with the current Italian law and met the guidelines of the Institutional Animal Care and Use Committee of the Ministry of Health (Directorate General for Animal Health and Veterinary Medicines, Italy) “Dosing of enzymatic activities in rat microsomes” (2018–2022), project code 02769.N.VLY. The experiments were performed in male Sprague-Dawley albino rats (150 g body weight and age 45 d). They had free access to water and were kept at room temperature with a natural photoperiod (12 h light–12 h dark cycle). For measuring HO-1 and HO-2 activities, each rat was sacrificed and their spleen and brain were excised and weighed. A homogenate (15%, w/v) of spleens and brains pooled from four rats was prepared in ice-cold HO-homogenizing buffer (50 mM Tris buffer, pH 7.4, containing 0.25 M sucrose) using a Potter–Elvehjem homogenizing system with a Teflon pestle. The microsomal fraction of rat spleen and brain homogenate was obtained by centrifugation at 10 000g for 20 min at 4 °C, followed by centrifugation of the supernatant at 100 000g for 60 min at 4 °C. The 100 000g pellet (microsomes) was resuspended in 100 mM of potassium phosphate buffer, pH 7.8, containing 2 mM MgCl2 with a Potter–Elvehjem homogenizing system. The rat spleen and brain microsomal fractions were divided into equal aliquots, placed into microcentrifuge tubes, and stored at −80 °C for up to 2 months.
Liver cytosol has been used as a source of biliverdin reductase. Rat liver was perfused through the hepatic portal vein with cold 0.9% NaCl; then, it was cut and flushed with 2 × 20 mL of ice-cold PBS to remove all of the blood. Liver tissue was homogenized in 3 volumes of a solution containing 1.15% KCl w/v and Tris buffer 20 mM, pH 7.8 on ice. Homogenates were centrifuged at 10 000g for 20 min at 4 °C. The supernatant was decanted and centrifuged at 100 000g for 1 h at 4 °C to sediment the microsomes. The 100 000g supernatant was saved and then stored in small amounts at −80 °C after its protein concentration was measured.
The HO-1 and HO-2 activities were determined by measuring the bilirubin formation using the difference in absorbance at 464–530 nm, as described by Ryter et al.[2] Reaction mixtures (500 μL) consisted of 20 mM of Tris–HCl, pH 7.4, (1 mg/mL) microsomal extract, 0.5–2 mg/mL of biliverdin reductase, 1 mM of NADPH, 2 mM of glucose 6-phosphate (G6P), 1 U of G6P dehydrogenase, 25 μM of hemin, and 10 μL of DMSO (or the same volume of DMSO solution of test compounds to a final concentration of 100, 10, and 1 μM). Incubations were carried out for 60 min at 37 °C in a circulating water bath in the dark. Reactions were stopped by adding the same volume of chloroform. After recovering the chloroform phase, the amount of bilirubin formed was measured with a double-beam spectrophotometer as OD464–530 nm (extinction coefficient, 40 mM/cm^–1 for bilirubin). One unit of the enzyme was defined as the amount of enzyme catalyzing the formation of 1 nmol of bilirubin/mg protein/h.

On HO-1, `CN(C(=O)Cn1ccnc1)c1ccc(I)cc1` [7e, 2-(1H-Imidazol-1-yl)-N-(4-iodophenyl)-N-methylacetamide] registered a half-inhibitory concentration (IC50) of 96.1 ± 1.44 µM.
In turn, `CN(C(=O)Cn1ccnc1)C(c1ccccc1)C1CCCCC1` (stereo not shown) [7k, N-(Cyclohexyl(phenyl)methyl)-2-(1H-imidazol-1-yl)-N-methylacetamide] came in with a melting point of 130 to 133 °C. Besides, at HO-1, the “fold less potent than compound 7i (HO-1)” value is on record as 30 fold and the IC50 amounted to 26.8 ± 1.61 µM.
In the case of `O=C(c1ccccc1)N(CCCn1ccnc1)Cc1ccccc1` [11b, N-(3-(1H-Imidazol-1-yl)propyl)-N-benzylbenzamide], on HO-1, the “HO-1 inhibitory activity (in words)” value was “comparable to the hit compound 4” and the IC50 was 31 ± 1.74 µM.
For the molecule `O=C(Cc1ccccc1)N(CCCn1ccnc1)Cc1ccccc1` [11c, N-(3-(1H-Imidazol-1-yl)propyl)-N-benzyl-2-phenylacetamide], on HO-1, the “HO-1 inhibitory activity (in words)” value was “comparable to the hit compound 4” and the IC50 is 32 ± 1.48 µM.
In turn, `CN(Cc1ccccc1)C(=O)Cn1ccnc1` [7g, N-Benzyl-2-(1H-imidazol-1-yl)-N-methylacetamide] showed a melting point of 106 to 111 °C. This molecule also returned a 50% inhibitory concentration (IC50) against HO-1 of 50.6 ± 1.84 µM.
`O=C(Cn1ccnc1)Nc1ccc(I)cc1` [7d, 2-(1H-Imidazol-1-yl)-N-(4-iodophenyl)acetamide] yielded a melting point of 222 to 225 °C. The same molecule yielded an IC50 at HO-1 of 8.34 ± 0.21 µM.
`O=C(Cn1ccnc1)Nc1cccc(Br)c1` [7c, N-(3-Bromophenyl)-2-(1H-imidazol-1-yl)acetamide] showed a melting point of 158 to 162 °C. Also, the IC50 at HO-1 was found to be 35.7 ± 1.2 µM.
With `O=C(Cn1ccnc1)NCc1ccccc1` [7f], on HO-1, the “fold decrease in potency with respect to 4 (HO-1)” value came out at 2 fold and the IC50 was 57.6 ± 2.38 µM.
In turn, `O=C(Cn1ccnc1)Nc1ccccc1` [7a] showed an IC50 at HO-1 of 110 ± 3.1 µM.
Take `CC(=O)N(CCCn1ccnc1)Cc1ccccc1` [11a, N-(3-(1H-Imidazol-1-yl)propyl)-N-benzylacetamide]: at HO-1, the “HO-1 inhibitory activity (in words)” value is “almost inactive” and the IC50 was 224 ± 8.1 µM.
`O=C(Cn1ccnc1)N(Cc1ccccc1)Cc1ccccc1` [7h, N,N-Dibenzyl-2-(1H-imidazol-1-yl)acetamide] showed a melting point of 99 to 102 °C. Half-maximal inhibition on HO-1 (IC50) was put at 64.8 ± 1.56 µM.
As for `CN(C(=O)Cn1ccnc1)c1ccccc1` [7b, 2-(1H-Imidazol-1-yl)-N-methyl-N-phenylacetamide], the melting point fell in the range of 117 to 119 °C.
`CN(C(=O)Cn1ccnc1)C(c1ccccc1)C1CCCC1` (stereo not shown) [7j, N-(Cyclopentyl(phenyl)methyl)-2-(1H-imidazol-1-yl)-N-methylacetamide] registered a melting point of 134 to 136 °C. Further, at HO-1, the “fold less potent than compound 7i (HO-1)” value is 13 fold and the half-inhibitory concentration (IC50) was determined as 11.4 ± 0.97 µM.
